# Where “and” joins values, the source holds several entries; their conditions need not be identical. Equal values may be shown once.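 Where inhibition never reached the appropriate level, the endpoint shown equals the highest concentration tested. Otherwise, values were interpolated linearly from a five-concentration, 48-hour dose response in 96-well plates. GI50 = concentration required for 50% inhibition of growth. TGI: concentration producing complete growth inhibition.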
# Assays:
# Assay in all cases: NCI tumour cell line growth inhibition, 48 h
# SF-295 CNS = tested on: SF-295 CNS
# NCI-H23 lung = tested on: NCI-H23 lung
# NCI-H226 lung = tested on: NCI-H226 lung
# RPMI-8226 leukemia = tested on: RPMI-8226 leukemia
# A549 NSCLC = tested on: A549 NSCLC
# A498 renal = tested on: A498 renal
# SNB-19 CNS = tested on: SNB-19 CNS
# OVCAR-3 ovarian = tested on: OVCAR-3 ovarian
# HOP-62 NSCLC = tested on: HOP-62 NSCLC
# SK-OV-3 ovarian = tested on: SK-OV-3 ovarian
Structure (SMILES),GI50 (SF-295 CNS),TGI (SF-295 CNS),GI50 (NCI-H23 lung),TGI (NCI-H23 lung),GI50 (NCI-H226 lung),TGI (NCI-H226 lung),GI50 (RPMI-8226 leukemia),TGI (RPMI-8226 leukemia),GI50 (A549 NSCLC),TGI (A549 NSCLC),GI50 (A498 renal),TGI (A498 renal),GI50 (SNB-19 CNS),TGI (SNB-19 CNS),GI50 (OVCAR-3 ovarian),TGI (OVCAR-3 ovarian),GI50 (HOP-62 NSCLC),TGI (HOP-62 NSCLC),GI50 (SK-OV-3 ovarian),TGI (SK-OV-3 ovarian)
Cc1cnc(C(=O)NNc2nc3sc4c(c3c(=O)n2C)C(C)CCC4)cn1 (stereo unspecified),0.384 µM,3.91 µM,0.719 µM,10.3 µM,0.404 µM,3.03 µM,0.357 µM,> 20 µM,0.371 µM,4.69 µM,1.89 µM,7.8 µM,0.425 µM,5.45 µM,0.259 µM,1.8 µM,0.304 µM,5.65 µM,0.628 µM,5.01 µM
Cn1cc(-c2ccc(-c3ccc(C4=NC5(CC5)C(=O)N4C[C@@H]4CCN(C(=O)C5CC5)C4)cc3)cc2)cn1,10.8 µM,29.2 µM,12.7 µM,41.8 µM,16 µM,51.2 µM,0.0883 µM,19.7 µM,12.5 µM,39.3 µM,2.16 µM,23.7 µM,21.8 µM,> 100 µM,11.5 µM,28.1 µM,25.2 µM,> 100 µM,29.9 µM,> 100 µM
Cc1cccc(C)c1NC(=O)C(=O)Nn1c(NN)nc2ccccc2c1=O,,> 100 µM,,> 100 µM,,> 100 µM,,> 100 µM,,> 100 µM,,> 100 µM,,> 100 µM,,> 100 µM,,> 100 µM,,> 100 µM
COc1cccc(NC(=O)/C(Cc2nc3ccccc3nc2C)=N/NC(=O)C[n+]2ccccc2)c1,,> 100 µM,,> 100 µM,,> 100 µM,,68.1 µM,,> 100 µM,,> 100 µM,,> 100 µM,,> 100 µM,,> 100 µM,,> 100 µM
CN(C)c1ccc(/C=C/c2cc[n+](C)c(/C=C/c3ccc(N(C)C)cc3)c2)cc1,0.27 µM,1.32 µM,0.194 µM,1.21 µM,0.271 µM,5.43 µM,0.123 µM,0.675 µM,0.334 µM,10.6 µM,0.194 µM,1.81 µM,0.322 µM,2.95 µM,0.337 µM,1.56 µM,0.345 µM,2.31 µM,0.27 µM,1.39 µM
Cn1cc2ccccc2c1-c1nc(F)nc(OCC(=O)[C@H]2CCC3[C@@H]4CCC5=CC(=O)CC[C@]5(C)C4[C@@H](O)C[C@@]32C)n1 (stereo partly specified),,44.4 µM,,16.5 µM,,36.5 µM,,21.3 µM,,> 77.8 µM,,> 54 µM,,36 µM,,33.2 µM,,42.7 µM,,37.3 µM
C=C(c1ccccc1)[C@@]1(O)CC[C@@H]1N(CC#N)Cc1ccccc1,,> 100 µM,,68 µM,,> 100 µM,,> 67 µM,,> 73.5 µM,,> 100 µM,,> 63.8 µM,,17.1 µM,,> 100 µM,,> 100 µM
COc1cc2c(cc1OC)C13CCN4CC5CCOC6CC(=O)N2C1C6C5CC43 (stereo unspecified),,> 100 µM,,> 100 µM,,> 100 µM,,> 100 µM,,> 100 µM,,> 100 µM,,> 100 µM,,> 100 µM,,> 100 µM,,> 100 µM
O=c1cccccc1[O-].O=c1cccccc1[O-].O=c1cccccc1[O-].[La+3],,39.6 µM,,> 100 µM,,99 µM,,> 100 µM,,> 100 µM,23.6 µM,90.1 µM,,84.1 µM,,55.8 µM,31.4 µM,78.5 µM,,86.9 µM
COc1ccc(-c2ccc(-c3ccc(C(=N)N)o3)o2)cc1,1.68 µM,3.51 µM,4.34 µM,18.3 µM,22 µM,42.8 µM,2.68 µM,7.85 µM,1.49 µM,4.79 µM,1.76 µM,7.48 µM,1.99 µM,11.3 µM,0.924 µM,2.74 µM,1.51 µM,4.51 µM,5.63 µM,18.7 µM
NCCCNCCCCNC(=O)C(O)NC(=O)CCCCCCN=C(N)N (stereo unspecified),1400 µM,608 µM and > 4710 µM,2330 µM,750 µM and > 5000 µM,2430 µM,750 µM and > 5000 µM,1770 µM,750 µM and > 3790 µM,1640 µM,750 µM and > 5000 µM,1500 µM,> 5000 µM,2080 µM,750 µM and > 4430 µM,1750 µM,750 µM and > 5000 µM,3470 µM,750 µM and > 5000 µM,> 5000 µM,> 5000 µM
CCNC(=O)O[C@H]1CN[C@H](C#Cc2cc3ncnc(Nc4ccc(OCc5cccc(F)c5)c(Cl)c4)c3s2)C1,8.13 µM,> 25 µM,9.13 µM,> 25 µM,7.09 µM,> 21.1 µM,5.41 µM,> 23.4 µM,5.29 µM,> 25 µM,1.7 µM,11.7 µM,16.2 µM,> 25 µM,3.77 µM,16.7 µM,14.9 µM,> 25 µM,0.0299 µM,> 25 µM
O=c1c(-c2ccccc2)coc2cc(OC/C(=N/O)c3ccccc3)ccc12,29.5 µM,74.9 µM,> 100 µM,> 100 µM,23.4 µM,> 100 µM,13.8 µM,53 µM,3.62 µM,25.2 µM,16.5 µM,33.4 µM,23.2 µM,86.9 µM,24.7 µM,60.1 µM,18.9 µM,51.3 µM,25.9 µM,88.5 µM
O=C1C(=O)c2cccnc2-c2ncccc21,0.295 µM,0.946 µM,0.319 µM,1.3 µM,0.696 µM,2.05 µM,0.0459 µM,0.399 µM,1.04 µM,2.8 µM,0.199 µM,2.21 µM,0.236 µM,1.1 µM,0.193 µM,0.503 µM,0.225 µM,0.882 µM,1.16 µM,2.98 µM
O=C1C(Cl)=C(NCc2ccco2)C(=O)c2ccccc21,8.24 µM,41.6 µM,2.5 µM,10.4 µM,18.8 µM,> 60.7 µM,10.2 µM,> 100 µM,7.61 µM,31.1 µM,17.7 µM,59.2 µM,24.3 µM,> 100 µM,4.93 µM,19.4 µM,17.1 µM,43.6 µM,40.3 µM,> 100 µM
CN(C)CC/[N+]([O-])=C(/c1ccccc1)C12CC3CC(CC(C3)C1)C2,,27.5 µM,,37.4 µM,,27.5 µM,,42.7 µM,,32.9 µM,,32.6 µM,,37.5 µM,,27.8 µM,,28.9 µM,,31.4 µM
C=C1CC2(OC1=O)C(=O)Nc1ccccc12 (stereo unspecified),28.9 µM,> 100 µM,6.34 µM,23.1 µM,1.85 µM,5.24 µM,1.8 µM,5.94 µM,12.9 µM,34.3 µM,5.91 µM,19.4 µM,32.9 µM,> 100 µM,1.11 µM,2.77 µM,12.6 µM,29.6 µM,26.7 µM,> 100 µM
CSc1nc(SC)c2c(CO)c(Br)n(Cc3ccccc3)c2n1,,40.9 µM,,> 100 µM,,39.3 µM,,> 100 µM,,> 100 µM,,14.5 µM,,84.3 µM,,> 100 µM,,80.1 µM,,37.6 µM
Cc1cc(C)c(-n2c(-c3ccc(Br)cc3)cs/c2=N\N=C2C=C(C(C)(C)C)C(=O)C(C(C)(C)C)=C2)c(C)c1,,> 100 µM,,> 100 µM,,> 100 µM,,> 100 µM,,> 100 µM,,97.7 µM,,> 100 µM,,> 100 µM,,> 78.6 µM,,> 100 µM
C=C1C(=O)O[C@H]2[C@H]1CC/C(Cn1cc(-c3ccccc3C(F)(F)F)nn1)=C\CC[C@@]1(C)O[C@@H]21,10.3 µM,22.6 µM,1.75 µM,3.57 µM,1.73 µM,4.69 µM,1.87 µM,8.49 µM,7.23 µM,21.8 µM,3.86 µM,15.9 µM,10.8 µM,25.8 µM,1.04 µM,2.33 µM,4.72 µM,18.7 µM,17.3 µM,31.2 µM
CCCCCCCc1cc2c3c(nc4ccccc42)C(=O)c2cccnc2-c3n1,3.45 µM,7.32 µM,10.8 µM,25.6 µM,6.82 µM,16.3 µM,4.27 µM,12.6 µM,2.46 µM,11.9 µM,6.46 µM,17.5 µM,2.17 µM,7.31 µM,2.3 µM,8.97 µM,7.14 µM,20 µM,15.3 µM,28.6 µM
O=C1C(=Cc2c(O)cc(O)cc2O)C(=O)c2ccccc21,,> 57 µM,,> 53.9 µM,,> 63 µM,,> 71.9 µM,,> 100 µM,,98.7 µM,,> 56.9 µM,,> 55 µM,,> 100 µM,,> 100 µM
Cc1cn(-c2cc(NC(=O)c3ccc(C)c(Nc4nccc(-c5cccnc5)n4)c3)cc(C(F)(F)F)c2)cn1,3.16 µM and 2.78 µM,> 10 µM and 11.3 µM,7.35 µM and 6.5 µM,> 10 µM and 30 µM,> 10 µM and 16.2 µM,> 10 µM and 39.8 µM,2.29 µM and 2.25 µM,> 100 µM,5.31 µM and 2.68 µM,> 10 µM and 7.76 µM,> 10 µM and 4.09 µM,> 10 µM and 12.1 µM,> 10 µM and 13.1 µM,> 10 µM and 32.7 µM,5.77 µM and 4.38 µM,> 10 µM and 11.5 µM,> 10 µM and 8.92 µM,> 10 µM and 26.3 µM,> 10 µM and 3.91 µM,> 10 µM and 11.3 µM
COC(=O)[C@@H](C)C[C@H](Cc1ccccc1)NC(=O)c1csc([C@@H](C[C@H](C(C)C)N(C)C(=O)[C@@H](NC(=O)[C@H]2CCCCN2C)C2CC2)OC(C)=O)n1,0.000345 µM,0.00369 µM,0.000532 µM and 0.00165 µM,> 16.5 µM,0.009 µM and 0.00417 µM,1.18 µM,0.000225 µM and 0.00165 µM,> 16.5 µM,0.0027 µM and 0.00165 µM,> 16.5 µM,0.000862 µM,,0.000552 µM and 0.00165 µM,> 16.5 µM,4.97e-05 µM and < 0.00165 µM,0.00379 µM and < 0.00165 µM,0.000745 µM and 0.00165 µM,> 16.5 µM,0.000604 µM and 0.00165 µM,> 16.5 µM
CCN(CC)c1ccc(N=Nc2ccc(-c3nc4ccc[n+](C)c4o3)cc2)cc1,,27.9 µM,,28.6 µM,,27.6 µM,,7.38 µM,,27.1 µM,,35.9 µM,,26.1 µM,,21.8 µM,,29.9 µM,,34.1 µM
C#CCOc1cccc(Nc2ncnc3cc(NC(=O)CCl)ccc23)c1,3.52 µM,15.2 µM,3.4 µM,16.7 µM,10.7 µM,32.7 µM,3.44 µM,10.4 µM,5.03 µM,17.9 µM,12.7 µM,25.9 µM,4.98 µM,18.4 µM,1.84 µM,4.35 µM,11.3 µM,28.8 µM,4.36 µM,17.2 µM
N#CC1(C#N)C(C#N)(C#N)C12CCCCCC2,,> 57.2 µM,,31.3 µM,,47.5 µM,,> 35.1 µM,,21.4 µM,,34.1 µM,,> 87.8 µM,,29.7 µM,,> 89.4 µM,,> 100 µM
N#C/C(=C\c1ccc(Br)cc1)n1nnc2ccc(F)cc21,2.11 µM,5.07 µM,1.42 µM,3.34 µM,1.67 µM,4.03 µM,0.841 µM,6.96 µM,2.01 µM,72.4 µM,1.7 µM,3.54 µM,1.66 µM,3.16 µM,0.373 µM,1.49 µM,2.33 µM,7.52 µM,4.85 µM,> 100 µM
CC(C)(c1ccccc1)c1ccc(OC#N)cc1,,> 100 µM,,> 100 µM,,> 100 µM,,> 70.1 µM,,> 100 µM,,> 100 µM,,> 100 µM,,> 100 µM,,> 100 µM,,> 100 µM

# From PubChem BioAssay (NCI)
